Test results published in article PMC7926980, “The Antiproliferative and Apoptotic Effect of a Novel Synthesized S-Triazine Dipeptide Series, and Toxicity Screening in Zebrafish Embryos” (Molecules, 2021).

How the values were obtained:
MDA-MB-231 cells = test: MTT cell viability assay, MDA-MB-231; assay type: cell-based; settings: Homo sapiens, 72 h treatment
Method: (§1) The antiproliferative activity of the synthesized compounds was evaluated by the 3-(4,5-dimethylthiazol-2-yl)-2,5-diphenyl tetrazolium bromide (MTT) cell viability assay. Two types of breast cancer cell lines—namely MCF-7, which has estrogen and progesterone receptors, and MDA-MB-231, which is triple negative—were used, in addition to a colon cancer cell line (HCT-116).
(§2) The target products 3a–o were evaluated for their antiproliferative activity using the MTT viability assay of the MCF-7, MDA-MB-231 and HCT-116 cell lines (in triplicate) on at least three independent occasions for the determination of the reported mean values.
(§3) The three human tumor cell lines MCF-7, MDA-MB-231 and HCT-116 were cultured in Dulbecco’s Modified Eagle’s Medium (DMEM) with 10% fetal bovine serum, 2 mM L-glutamine and 100 µg/mL penicillin/streptomycin. The cells were maintained at 37 °C in 5% CO2 in a humidified incubator. All of the cells were sub-cultured 3 times/week by trypsinization using TrypLE Express (1×).
(§4) In order to calculate the relative IC50 values, the antiproliferative effect of compounds 3a–o was tested in three cancer cell lines (MCF-7, MDA-MB-231, HCT-116) and normal epithelial embryonic kidney cells (HEK-293) using the MTT viability assay. The cells were seeded in 96-well plates at a density of 10 × 10^3 cells/mL, in a total volume of 200 µL per well. In total, 0.1% DMSO was used as a vehicle control. […] The culture medium was then removed, and the cells were washed with phosphate-buffered saline (PBS), and 100 µL MTT was added (for a final concentration of 5 mg/mL MTT). The cells were incubated for 4 h in darkness at 37 °C. Next, 200 µL DMSO was added to each well, and the cells were maintained at room temperature in darkness for 20 min. The absorbance was detected with a microplate reader at 570 nm. The results were expressed as a percentage of viability relative to the vehicle control (100%). The dose-response curves were plotted, and the IC50 values were obtained using Prism software (GraphPad Software, Inc., La Jolla, CA, USA). All of the experiments were repeated in three independent experiments.

MCF-7 cells = test: MTT cell viability assay, MCF-7; assay type: cell-based, human; settings: 72 h treatment
Method: as §1, §2, §3, §4

HCT-116 cells = test: MTT cell viability assay, HCT-116; assay type: cell-based; settings: Homo sapiens, 72 h treatment
Method: as §1, §2, §3, §4

zebrafish embryos = test: Zebrafish embryo imaging (morphology, teratogenicity); assay type: in vivo; settings: 1 mM, embryos at 48 hpf, versus untreated embryos
Source text: The treated embryos had cardiac edema, craniofacial defects, tail lesions, and a delay in embryonic development. These observations are consistent with the findings in the literature.
A Zeiss Observer D1 inverted microscope using Zeiss ZEN software was used to capture the images of the live zebrafish embryos.
Figure 6 Representative images of the zebrafish embryos 48 hpf (A) control or (B) treated.

For `COC(=O)CNC(=O)CNc1nc(Nc2ccccc2)nc(N2CCOCC2)n1` [Compound 3a, Methyl (4-morpholino-6-(phenylamino)-1,3,5-triazin-2-yl) glycylglycinate], the IC50 (MDA-MB-231 cells) was 9.36 ± 1.15 µM, the IC50 (MCF-7 cells) was 0.82 ± 0.37 µM and the IC50 (MCF-7 cells; Homo sapiens, MCF7, 72 h) was less than 1 µM. For the same molecule, the IC50 (HCT-116 cells) was 17.9 ± 3.74 µM and the “embryonic abnormality or morphological difference in zebrafish embryo images” value (zebrafish embryos) was “did not indicate any embryonic abnormality or morphological difference”.
